Test results reported in patent US7820707B2, “Heterocyclic derivatives” (N.V. Organon, priority 2006, dated 2010).

Target: T1, AMPA (GluR1) receptor (Homo sapiens, UniProt P42261)
T1 construct: expressed in transfected cells; host or cells: HEK cells (HEK.GluR1(i), kept under hygromycin selection)
Assay: Ca2+ influx assay (FLEXstation, Fluo-3) for positive modulation of the AMPA (GluR1) receptor in HEK.GluR1(i) cells
Format: cell-based
Settings: glutamate +/- test compound, Ca2+ response with fluo3-AM
Excerpt: The compounds in this invention may be tested using a biological assay which measures Ca^2+ influx mediated through positive modulation of the AMPA (GluR1) receptor using standard techniques in the art such as, but not limited to, a FLEXstation (manufactured by Molecular Devices, Sunnyvale, Calif.). An optical readout using fluorescent probes is employed to measure ion channel dependent changes in intracellular ion concentration or membrane potential. The assay utilises the Ca^2+ conductance of functional homomeric GluR1(i) AMPA receptors to generate glutamate-dependent Ca^2+ responses. Influx of Ca^2+ through the ion channel is measured indirectly through an increase in intracellular Ca^2+ levels using the calcium sensitive dye such as, but not limited to, Fluo-3 (Molecular Devices, Sunnyvale, Calif.) in FLEXstation. A positive AMPA receptor modulator, in the presence of glutamate, will result in an influx of Ca^2+ through the ion channel which can be measured indirectly through an increase in intracellular Ca^2+ levels using the calcium sensitive dye Fluo-3 in FLEXstation.
HEK.GluR1(i) cells were maintained in DMEM supplemented with 10% fetaclone II, 1% non-essential amino acids and 150 μg/mL hygromycin, at 37° C./5% CO2. […]

T1 sequence (P42261 19-906 isoform P42261-2 limits assumed, species assumed): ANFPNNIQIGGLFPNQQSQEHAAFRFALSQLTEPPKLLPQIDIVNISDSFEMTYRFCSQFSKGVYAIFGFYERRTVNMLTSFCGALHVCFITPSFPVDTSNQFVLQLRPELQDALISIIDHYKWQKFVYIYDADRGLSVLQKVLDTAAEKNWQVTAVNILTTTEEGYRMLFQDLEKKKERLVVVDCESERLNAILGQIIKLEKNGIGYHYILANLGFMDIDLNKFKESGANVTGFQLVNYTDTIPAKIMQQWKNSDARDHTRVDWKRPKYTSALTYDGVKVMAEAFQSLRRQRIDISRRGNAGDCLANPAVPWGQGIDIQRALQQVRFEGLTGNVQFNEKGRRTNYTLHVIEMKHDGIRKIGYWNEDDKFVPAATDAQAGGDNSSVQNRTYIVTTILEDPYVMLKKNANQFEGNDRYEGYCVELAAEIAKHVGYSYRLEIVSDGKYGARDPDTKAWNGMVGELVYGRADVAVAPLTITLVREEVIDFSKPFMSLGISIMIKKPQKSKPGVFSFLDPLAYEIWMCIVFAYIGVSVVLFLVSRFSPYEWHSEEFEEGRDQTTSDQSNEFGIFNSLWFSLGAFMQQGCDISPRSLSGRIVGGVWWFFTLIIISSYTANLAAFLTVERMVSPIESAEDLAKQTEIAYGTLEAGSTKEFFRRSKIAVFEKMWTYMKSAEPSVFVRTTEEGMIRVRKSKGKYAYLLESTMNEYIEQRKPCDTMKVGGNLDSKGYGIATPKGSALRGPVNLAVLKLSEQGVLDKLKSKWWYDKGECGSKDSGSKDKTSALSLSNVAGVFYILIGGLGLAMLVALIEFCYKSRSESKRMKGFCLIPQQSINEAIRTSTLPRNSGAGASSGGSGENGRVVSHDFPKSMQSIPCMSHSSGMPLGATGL

EC50: 2.2 µM
SMILES: CC(O)c1cn(CC(=O)Nc2sc3c(c2C(N)=O)CCCC3)nc1C(F)(F)F (stereo not shown) [Example 67, 2-(2-(4-(1-hydroxyethyl)-3-(trifluoromethyl)-1H-pyrazol-1-yl)acetamido)-4,5,6,7-tetrahydrobenzo[b]thiophene-3-carboxamide]
